The record followed here is ChEMBL document CHEMBL1145661, “Studies on Aristolochia, I. Conversion of Aristolochic Acid-I to Aristolic Acid-One-Step Removal of a Nitro Group” (1983).

For experiment [1], the system named is Oryctolagus cuniculus. In words: Regulation of fertility in rabbit assessed as fetal loss 90 mg/kg. In kind it is functional.
Experiment [2] has as its system Oryctolagus cuniculus. The experiment can be described thus: Regulation of fertility in rabbit assessed as fetal loss 60 mg/kg. In kind it is functional.

Take `COc1cccc2c1ccc1c(C(=O)O)cc3c(c12)OCO3` [ARISTOLIC ACID]: the Activity with Oryctolagus cuniculus [1] and with Oryctolagus cuniculus [2] was 80% each time.
